Measured values reported in patent US8952025B2, “Multifunctional radical quenchers and their uses” (Arizona Board of Regents, A Body Corporate of the State of …, priority 2010, dated 2015).

How the values were obtained:
cultured FRDA cells = assay: Cytoprotection of cultured FRDA cells depleted of glutathione; assay type: cell-based; conditions: pretreated then depleted of glutathione, read-out: Viable Cells (%)
Excerpt: The cells were pretreated with the compounds and then depleted of glutathione. The cell viability is expressed as percentage of total number of cells.

[1] = tested on: NADH oxidase, bovine heart mitochondrial complex (I, III, IV); assay: NADH oxidase inhibition assay, submitochondrial particles; assay type: biochemical; conditions: for NADH oxidase activity (%): percentage of control; for IC50: beef heart SMP
Method: Beef heart mitochondria were obtained by a large-scale procedure. Inverted submitochondrial particles (SMP) were prepared by the method of Matsuno-Yagi and Hatefi (J. Biol. Chem. 260 (1985), p. 14424), and stored in a buffer containing 0.25 M sucrose and 10 mM Tris-HCl (pH 7.4) at −80° C. Inhibitory effects of compounds on bovine heart mitochondrial complex (I, III, IV) were evaluated. Maximal dimethyl sulfoxide concentration never exceeded 2% and had no influence on the control enzymatic activity. Beef heart SMP were diluted to 0.5 mg/mL. The enzymatic activities were assayed at 30° C. and monitored spectrophotometrically with a Beckman Coulter DU-530 (340 nm, c=6.22 mM^−1 cm^−1). NADH oxidase activity was determined in a reaction medium (2.5 mL) containing 50 mM Hepes, pH 7.5, containing 5 mM MgCl2. The final mitochondrial protein concentration was 30 μg. After the pre-equilibration of SMP with inhibitor for 5 min, the initial rates were calculated from the linear portion of the traces.
The activity is expressed as percentage of control.

CEM cells = assay: Reactive oxygen species (ROS) assay, DCFH-DA, DEM-treated cells; assay type: cell-based, human; conditions: compound 1 μM, 5 mM DEM
Excerpt: Cellular ROS production can be monitored using 2′,7′-dichlorodihydrofluorescein diacetate (DCFH-DA) (LeBel et al. (1992) Chem. Res. Toxicol. 5, 227-231) (Molecular Probes, Eugene, Oreg., USA), a membrane permeable and oxidant-sensitive fluorescent dye. DCFH-DA is a non-fluorescent derivative of fluorescein that emits fluorescence after being oxidized by hydrogen peroxide and other ROS. The emitted fluorescence is directly proportional to the concentration of hydrogen peroxide. DCFH-DA is nonionic and nonpolar and is easily taken up by cells. Once inside the cell, DCFH-DA is hydrolyzed by cellular esterases to non-fluorescent DCFH which traps the dye in the cell. In the presence of ROS including hydrogen peroxide, DCFH is oxidized to the highly fluorescent compound dichlorofluorescein (DCF). The intracellular DCF fluorescence is used as an index of cellular ROS production.
Cellular oxidative stress was induced by pharmacological depletion of glutathione (GSH) using the chemical diethylmaleate (DEM). ROS production was assessed by monitoring DCF fluorescence. Leukemic CEM cells (ATCC®, catalogue number CRL-2264) were cultured in RPMI (GIBCO, Grand island, N.Y., USA) with 10% FCS, 2 mM glutamine (HyClone, South Logan, Utah, USA) and 1% penicillin-streptomycin mix antibiotics (Cellgro, Manassan, Va., USA) supplements. Cells were maintained in the log phase at a concentration of between 1×10^5 and 1×10^6 cells/mL. CEM cells (1×10^6 cell/mL) were plated (1 mL) in twelve well plate and treated with the invention compounds (final concentration 1 and 5 μM), and incubated for two hours at 37° C., 5% CO2. The compounds tested were prepared by first making stock solutions (2.5 mM) in dimethylsulfoxide (DMSO). Cells were treated with 5 mM DEM for 30 minutes and collected by centrifugation at 300×g for 3 min and then washed twice with Hanks' Balanced Salt Solution (HSSB) buffer (Sigma, St. Louis, Mo. USA). Cells were resuspended in HSSB buffer+10 mM glucose and incubated at 37° C. in the dark for 20 min with 10 μM DCFH-DA. Cells were collected by centrifugation at 300×g for 3 min and then washed twice with HSSB buffer. The samples were analyzed immediately by flow cytometry (Becton-Dickinson FACS Caliber), (Cell Quest software, BD Biosciences) using 488 nm excitation laser and FL1-H channel 538 nm emission filter. In each analysis, 10,000 events were recorded after cell debris were electronically gated out. Results obtained were verified by repeating experiments N=3 independent experiments. Authentic hydrogen peroxide was used as a positive control.

Structure (SMILES) | NADH oxidase activity (%) ([1]; 1 μM) | NADH oxidase activity (%) ([1]; 2.5 μM) | NADH oxidase activity (%) ([1]; 5 μM) | NADH oxidase activity (%) ([1]; 10 μM) | other results
CCCCCCCCCCc1nc(N(C)C)nc(C)c1O [drawing 128] | – | – | – | – | viability at 0.1 µM (cultured FRDA cells): 54.5 ± 3.3%; viability at 0.5 µM (cultured FRDA cells): 84 ± 3.6%; viability at 2.5 µM (cultured FRDA cells): 76.3 ± 5%
CCCCCCCCCCCCCCCCc1nc(N(C)C)nc(C)c1O [drawing 129] | – | – | – | – | viability at 0.1 µM (cultured FRDA cells): 61.3 ± 2.9%; viability at 0.5 µM (cultured FRDA cells): 84.4 ± 3.4%; viability at 2.5 µM (cultured FRDA cells): 88 ± 1%
CCCCCCCCCCc1nc(N(C)C)nc(OC)c1O [drawing 130] | – | – | – | – | viability at 0.1 µM (cultured FRDA cells): 40.3 ± 1.5%; viability at 0.5 µM (cultured FRDA cells): 83.7 ± 1.5%; viability at 2.5 µM (cultured FRDA cells): 82.7 ± 2.5%
CCCCCCCCCCCCCCCCc1nc(N(C)C)nc(OC)c1O [drawing 131] | – | – | – | – | viability at 0.1 µM (cultured FRDA cells): 43.7 ± 3.1%; viability at 0.5 µM (cultured FRDA cells): 66.3 ± 1.5%; viability at 2.5 µM (cultured FRDA cells): 80.5 ± 5%
CCCCCc1nc(N(C)C)nc(C)c1O [drawing 132] | 85% | – | – | – | –
CCCCCCCCCCc1nc(N(C)C)nc(C)c1O [drawing 133] | 40% | – | – | – | IC50 [1]: 829 nM
Cc1nc(N(C)C)nc(CCCCCCCCCCO)c1O [drawing 134] | 50% | 42% | 22% | 15% | IC50 [1]: 2230 nM
Cc1nc2c(c(CC[C@](C)(O)CCC[C@H](C)CCC[C@H](C)CCCC(C)C)c1O)CCN2C [drawing 136] | 50% | 50% | – | 15% | –
Cc1cc(N(C)C)nc(CCCCCCCCCCO)c1O [drawing 137] | 90% | 58% | 38% | 20% | –
COc1nc(N(C)C)nc(CCCCCCCCCCO)c1O [drawing 138] | 62.5% | 40% | 50% | 25% | –
CCCCCCCCCCCCCCCCc1nc(N(C)C)nc(C)c1O [drawing 139] | 62% | 62% | 62% | 62% | –
CCCCCCCCCCCCCCCCc1nc(N(C)C)nc(OC)c1O [drawing 140] | 90% | 70% | 70% | 70% | –
CCCCCCCCCCc1nc(N(C)C)nc(OC)c1O [drawing 141] | 38% | – | 38% | 10% | –
COc1c(O)c(C)c(CCCCCCCCCCO)c(O)c1OC [idebenol, reference compound] | – | – | – | – | protection against ROS production (DCF fluorescence) (CEM cells): less effective at this concentration
